The source of these data is patent US7671181B2, “Polynucleotides encoding coccidian parasite casein kinase I, a chemotherapeutic target for antiprotozoal agents” (Merck Sharp & Dohme Corp., priority 2004, dated 2010).

The test system of this test is T. gondii tachyzoites. Description: [3H]-uracil uptake assay of parasite growth inhibition in infected HFF cell monolayers. To be noted: infected HFF cell monolayers, 36-48 hours; read-out: IC50 against T. gondii in the uracil uptake assay. Type of test: cell-based, Toxoplasma gondii. The source says:
Host cells and parasite cultures—RH strain or RH ΔHXGPRT strain tachyzoites of T. gondii were maintained by serial passage in confluent monolayers of human foreskin fibroblasts (“HFF”) as described (Roos, D. S. et al., 1994, Methods Cell Biol. 45:27-63). A modified [^3H]-uracil uptake assay (Pfefferkorn, E. R. and Pfefferkorn, L. C., 1977, J. Protozool. 24:449-453) adapted for use in 96-well scintillation plates (Cytostar-T, Amersham; Piscataway, N.J.) was used to measure parasite growth inhibition. Each well, previously seeded with HFF cells, was inoculated with T. gondii tachyzoites (2×10^4) in 200 μl of growth media containing 2 μCi [5,6]-^3H-uracil (Perkin-Elmer NEN; Boston, Mass.) and serially diluted compound. Following incubation at 37° C. for 36-48 hours, tritium-incorporation into host cell monolayers was directly counted in a microplate scintillation counter (MicroBeta, PerkinElmer-Wallac).

In the case of `CC(C)[C@H](CO)Nc1nc(Nc2ccc(C(=O)O)c(Cl)c2)c2ncn(C(C)C)c2n1` [purvalanol B], the half-inhibitory concentration (IC50) was found to be 260 nM.

In general, IC50 refers to the midpoint of a concentration-inhibition curve.
